Reference: patent publication US20140017302A1, “OPTIMISED PREPARATIONS OF HIGHLY ADAPTABLE AGGREGATES” (priority 2011, published 2014)

Assays:
[1] = cited from earlier work; for pK (first value): buffer/salt of Table 1
[2] = Drug payload limit: terbinafine concentration at minimum vesicularisation time (FIG. 1 inset); assay type: physicochemical; conditions: for payload (concentration at minimum vesicularisation time): phosphatidylcholine vesicles + 5 wt.-% ethanol, azeleate buffer 0.05 M
Text: FIG. 1 is a schematic representation of experiments carried out to show an effect of buffer (ionic additive) selection on the vesicularisation time of reference (i.e. containing >90% pure soybean phosphatidylcholine) vesicles and of vesicles loaded with terbinafine as a function of the bulk pH. The results of an additional test series, in which an increasing amount of terbinafine was incorporated into phosphatidylcholine vesicles (at 10 wt-%-terbinafine concentration+5 wt.-% ethanol) dispersed in azeleate buffer (0.05 M) are shown in the Inset for pH=4.55±0.1 (diamonds) and pH=3.6±0.1 (down-arrow).

[3] = Vesicularisation time: sonication of a crude suspension until opalescent/transparent, followed by turbidity; assay type: physicochemical
Text: The term aggregate “adaptability” is herein closely related to “deformability” and can be measured using previously described methods (e.g. Wachter et al., 2008, J. Drug Targeting 16: 611). In principle, most of these methods assess the penetration of a nanoporous, semipermeable barrier by the tested aggregates in a suspension, presuming no significant aggregate fragmentation during penetration. In an alternative method, the kinetics of aggregate fragmentation under greater external stress is studied, e.g., during ultrasonication. An aggregate is considered to have an ultradeformable bilayer for purposes of the invention if its adaptability is close to or at about the highest value achievable without an appreciable, and normally spontaneous, aggregate fragmentation into smaller structures, e.g. micelles.
The term “vesicularisation time” refers to the time required to transform an originally opaque suspension (i.e. having an optical density >>3) to an opalescent/transparent suspension with a much lower optical density using external stress, e.g. generated with an ultrasound transducer, high-shear homogeniser (Ultra-Turrax®, IKA) or rotor-stator homogeniser. […]
A first consideration is that the chosen pH is far enough from the tested aggregate surface pKa,mem to exclude ionisation changes during a test; otherwise, experiments must be conducted at two or more constant, yet different, pH values and then analysed together allowing for the pH effects. […]
In a simpler and more qualitative alternative assay, one compares the test sample turbidity with an appropriate opalescent/transparent reference suspension turbidity. A series of readings taken for each representative sample at different times can likewise reveal temporal stability. Experimental data generated with this method confirmed the independency of the conclusions drawn from individual turbidity readouts for the preparations of the invention: within experimental error limits, the difference between the time required to generate more or less, but always similarly turbid suspension is generally the same. […]

[4] = T=310 K, phospholipid plus drug ~10 w-%

OCCN1CCCC1 [1-Pyrrolidineethanol (epolamine), 1-Pyrrolidineethanol]
pK1 ([1]; buffer of Table 4): 9.8 | pK (first value) [1]: 9.8

CC(=O)O [Acetic acid]
pK (first value) [1]: 4.8

O=C(O)CN(CCO)CCO [Bicine]
pK1 ([1]; buffer of Table 4): 8.5 | pK2 ([1]; buffer of Table 4): 1.9

OCCN(CCO)C(CO)(CO)CO [Bis-TRIS]
pK1 ([1]; buffer of Table 4): 6.5

C[N+](C)(C)CCO.[Cl-] [Choline, chloride]
pK1 ([1]; buffer of Table 4): 13.9

CCNCC [Diethylamine]
pK1 ([1]; buffer of Table 4): 10.6

O=C(O)[C@H](O)[C@@H](O)[C@H](O)[C@H](O)CO [Gluconic acid]
pK (first value) [1]: 3.6

O=S(=O)(O)CCN1CCN(CCO)CC1 [HEPES]
pK1 ([1]; buffer of Table 4): 7.6 | pK2 ([1]; buffer of Table 4): 1.7

Cl [Hydrochloric acid, sodium, Hydrochloric acid]
pK (first value) [1]: −9.3

c1c[nH]cn1 [Imidazole]
pK1 ([1]; buffer of Table 4): 14.5 | pK2 ([1]; buffer of Table 4): 6.9 | pK (first value) [1]: 6.9

NCCCC[C@H](N)C(=O)O [Lysine]
pK1 ([1]; buffer of Table 4): 10.5 | pK2 ([1]; buffer of Table 4): 9.1 | pK3 ([1]; buffer of Table 4): 2.2

OCCN1CCOCC1 [Morpholinoethanol]
pK1 ([1]; buffer of Table 4): 7.4 | pK (first value) [1]: 7.4

O=S(=O)(O)CCN1CCN(CCS(=O)(=O)O)CC1 [PIPES]
pK1 ([1]; buffer of Table 4): 7.1 | pK2 ([1]; buffer of Table 4): 0.4

O=C1CC[C@@H](C(=O)O)N1 [Pyroglutamic acid (pidolic acid), Pyroglutamic acid]
pK (first value) [1]: 3.5

[Na+].[OH-] [Sodium hydroxyde, NaCl, Sodium hydroxyde]
pK (first value) [1]: 13.0

O=S(=O)(O)O [Sulphuric acid]
pK1 ([1]; buffer of Table 4): −3 | pK2 ([1]; buffer of Table 4): 1.9

O=C(O)CNC(CO)(CO)CO [Tricine]
pK1 ([1]; buffer of Table 4): 8.2 | pK2 ([1]; buffer of Table 4): 2.3

O=C(O)CCCCCCCC(=O)O [azaleic acid, Azelaic acid]
log P [1]: > 1

O=C(c1ccccc1)c1ccc2n1CCC2C(=O)O (stereo not drawn) [ketorolac, reference compound]
log Pmem^I ([1]; best estimates): ~0.8 | log Pmem^N ([1]; best estimates): ~2.3 | pK ([1]; best estimates): 3.5 | pKa,mem ([1]; best estimates): ~5.5

Cc1ccc(S(=O)(=O)O)cc1 [p-Toluenesulfonic acid]
pK (first value) [1]: 0.7

CN(C/C=C/C#CC(C)(C)C)Cc1cccc2ccccc12 [terbinafine]
payload limit (concentration at minimum vesicularisation time) ([2]; aggregate suspensions in phosphate buffer of comparable pH): < 10 wt.-% | higher payload in azeleate buffer compared with phosphate buffer ([2]; comparable pH): at least 50% | payload (concentration at minimum vesicularisation time) ([2]; pH=3.6): ~20% | payload (concentration at minimum vesicularisation time) ([2]; pH=4.55): ~15% | de/protonation constant in a membrane, pKa,mem [1, 4]: 5.5 | de/protonation constant in the bulk, pK [1, 4]: 7.05 | water-membrane partition ratio, ionised drug form, log Pmem^I [1, 4]: 3.78 | water-membrane partition ratio, neutral drug form, log Pmem^N [1, 4]: 5.19 | vesicularisation time ([3]; 10 wt.-% total amphipat including 20 rel-% terbinafine, phosphate buffer, pH~4.4): exceeds 200 s | sonication time (vesicularisation time) ([3]; terbinafine + phosphatidylcholine, 0.1 M phosphate buffer, pH=5.7, fails to produce small aggregates above the precipitate): exceeding 1400 s | time needed to prepare drug-loaded aggregates ([3]; terbinafine + phosphatidylcholine, phosphate buffer, pH=5.2): around 700 s
